Data published in ChEMBL document CHEMBL5608173, “Discovery of novel natural-product-derived mutant isocitrate dehydrogenases 1 inhibitors: Structure-based virtual screening, biological evaluation and structure-activity relationship study” (Eur J Med Chem, 2024).
The source made the active and inactive calls. No cut-off for these calls is given here.

How the values were obtained:
[1] = tested on: Isocitrate dehydrogenase [NADP] cytoplasmic (Homo sapiens), O75874 [R132H]; test: Inhibition of recombinant human IDH1 R132H mutant extracted from Escherichia coli BL21 (DE3) cells using alpha-ketoglutarate as substrate at 2 uM incubated for 60 mins in presence of NADPH by absorbance based assay relative to control
Isocitrate dehydrogenase [NADP] cytoplasmic (Homo sapiens), O75874 [R132H], sequence (O75874 whole entry R132H): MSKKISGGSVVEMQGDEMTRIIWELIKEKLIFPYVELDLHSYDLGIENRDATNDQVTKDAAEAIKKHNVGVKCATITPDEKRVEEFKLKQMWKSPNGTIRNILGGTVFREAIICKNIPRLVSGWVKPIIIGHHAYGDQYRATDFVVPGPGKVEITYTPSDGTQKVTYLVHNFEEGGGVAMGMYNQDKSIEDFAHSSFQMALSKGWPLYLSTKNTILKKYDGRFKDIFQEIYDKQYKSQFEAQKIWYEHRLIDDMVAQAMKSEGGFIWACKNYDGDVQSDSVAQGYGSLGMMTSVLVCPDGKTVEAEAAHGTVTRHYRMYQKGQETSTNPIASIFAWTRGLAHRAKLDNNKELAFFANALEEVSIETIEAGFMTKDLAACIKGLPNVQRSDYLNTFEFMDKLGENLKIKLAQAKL

[2] = biological target: Isocitrate dehydrogenase [NADP] cytoplasmic (Homo sapiens, UniProt O75874); test: Inhibition of recombinant human wildtype IDH1 extracted from Escherichia coli BL21 (DE3) cells using alpha-ketoglutarate as substrate incubated for 60 mins in presence of NADPH by absorbance based assay
Isocitrate dehydrogenase [NADP] cytoplasmic (Homo sapiens, UniProt O75874), sequence (O75874 whole entry): as the sequence (O75874 whole entry R132H) above, with H132R counted along it

[3] = tested on: HT-1080; test: Cell cycle arrest in human HT-1080 cells assessed as G2 phase cells at 2 uM incubated for 24 hrs by PI staining based flow cytometric analysis (reference value: 23.6 %); type: functional
[4] = tested on: Isocitrate dehydrogenase [NADP] cytoplasmic (Homo sapiens), O75874 [R132H]; test: Inhibition of recombinant human IDH1 R132H mutant extracted from Escherichia coli BL21 (DE3) cells using alpha-ketoglutarate as substrate at 0.2 uM incubated for 60 mins in presence of NADPH by absorbance based assay relative to control
[5] = tested on: Isocitrate dehydrogenase [NADP] cytoplasmic (Homo sapiens), O75874 [R132C]; test: Inhibition of recombinant human IDH1 R132C mutant extracted from Escherichia coli BL21 (DE3) cells using alpha-ketoglutarate as substrate at 2 uM incubated for 60 mins in presence of NADPH by absorbance based assay relative to control
Isocitrate dehydrogenase [NADP] cytoplasmic (Homo sapiens), O75874 [R132C], sequence (O75874 whole entry R132C): as the sequence (O75874 whole entry R132H) above, with H132C counted along it

[6] = biological target: Isocitrate dehydrogenase [NADP] cytoplasmic (Homo sapiens, UniProt O75874, R132H); test: Inhibition of IDH1 R132H mutant in human U-87 MG cells assessed as reduction in 2-HG level incubated for 48 hrs in presence of NAD+ by resazurin fluorescence dye based Sigma MAK320-1 assay kit analysis; type: cell-based
Isocitrate dehydrogenase [NADP] cytoplasmic (Homo sapiens, UniProt O75874, R132H), sequence (O75874 2-414 R132H limits assumed): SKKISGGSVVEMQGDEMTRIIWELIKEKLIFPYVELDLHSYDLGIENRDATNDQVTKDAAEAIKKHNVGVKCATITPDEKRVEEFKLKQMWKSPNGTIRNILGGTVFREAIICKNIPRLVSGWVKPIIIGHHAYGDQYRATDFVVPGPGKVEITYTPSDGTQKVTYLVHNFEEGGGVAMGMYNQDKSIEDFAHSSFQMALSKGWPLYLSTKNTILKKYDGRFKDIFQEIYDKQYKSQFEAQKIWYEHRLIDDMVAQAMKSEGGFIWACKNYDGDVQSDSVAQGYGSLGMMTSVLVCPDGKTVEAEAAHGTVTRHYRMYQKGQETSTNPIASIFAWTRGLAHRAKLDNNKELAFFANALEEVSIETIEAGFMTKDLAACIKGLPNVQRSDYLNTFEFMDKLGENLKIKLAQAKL

[7] = tested on: HT-1080; test: Antiproliferative activity against human HT-1080 cells harboring IDH1 R132C mutant assessed as reduction in cell viability at 10 uM incubated for 72 hrs by MTT assay; type: functional, cell-based
[8] = tested on: HT-1080; test: Antiproliferative activity against human HT-1080 cells harboring IDH1 R132C mutant assessed as reduction in cell viability incubated for 72 hrs by MTT assay; type: functional
[9] = tested on: HT-1080; test: Induction of apoptosis in human HT-1080 cells assessed as viable cells at 2 uM incubated for 48 hrs by Annexin V-FITC/PI staining based flow cytometric analysis (reference value: 96.07 %); type: functional; conditions: read-out: Activity
[10] = tested on: HT-1080; test: Induction of apoptosis in human HT-1080 cells assessed as early apoptotic cells at 2 uM incubated for 48 hrs by Annexin V-FITC/PI staining based flow cytometric analysis (reference value: 2.33 %); type: functional
[11] = tested on: HT-1080; test: Induction of apoptosis in human HT-1080 cells assessed as necrotic cells at 2 uM incubated for 48 hrs by Annexin V-FITC/PI staining based flow cytometric analysis (reference value: 0.45 %); type: functional
[12] = tested on: HT-1080; test: Induction of apoptosis in human HT-1080 cells assessed as viable cells at 4 uM incubated for 48 hrs by Annexin V-FITC/PI staining based flow cytometric analysis (reference value: 96.07 %); type: functional; conditions: read-out: Activity
[13] = tested on: HT-1080; test: Induction of apoptosis in human HT-1080 cells assessed as necrotic cells at 4 uM incubated for 48 hrs by Annexin V-FITC/PI staining based flow cytometric analysis (reference value: 0.45 %); type: functional
[14] = tested on: HT-1080; test: Induction of apoptosis in human HT-1080 cells assessed as viable cells at 8 uM incubated for 48 hrs by Annexin V-FITC/PI staining based flow cytometric analysis (reference value: 96.07 %); type: functional; conditions: read-out: Activity
[15] = tested on: HT-1080; test: Induction of apoptosis in human HT-1080 cells assessed as late apoptotic cells at 8 uM incubated for 48 hrs by Annexin V-FITC/PI staining based flow cytometric analysis (reference value: 1.15 %); type: functional
[16] = tested on: HT-1080; test: Induction of apoptosis in human HT-1080 cells assessed as necrotic cells at 8 uM incubated for 48 hrs by Annexin V-FITC/PI staining based flow cytometric analysis (reference value: 0.45 %); type: functional
[17] = tested on: HT-1080; test: Induction of apoptosis in human HT-1080 cells assessed as viable cells at 6 uM incubated for 12 hrs by Annexin V-FITC/PI staining based flow cytometric analysis (reference value: 96.65 %); type: functional; conditions: read-out: Activity
[18] = tested on: HT-1080; test: Induction of apoptosis in human HT-1080 cells assessed as late apoptotic cells at 6 uM incubated for 12 hrs by Annexin V-FITC/PI staining based flow cytometric analysis (reference value: 0.60 %); type: functional
[19] = tested on: HT-1080; test: Induction of apoptosis in human HT-1080 cells assessed as necrotic cells at 6 uM incubated for 12 hrs by Annexin V-FITC/PI staining based flow cytometric analysis (reference value: 0.38 %); type: functional
[20] = tested on: HT-1080; test: Induction of apoptosis in human HT-1080 cells assessed as early apoptotic cells at 6 uM incubated for 24 hrs by Annexin V-FITC/PI staining based flow cytometric analysis (reference value: 2.36 %); type: functional
[21] = tested on: HT-1080; test: Induction of apoptosis in human HT-1080 cells assessed as early apoptotic cells at 6 uM incubated for 48 hrs by Annexin V-FITC/PI staining based flow cytometric analysis (reference value: 2.36 %); type: functional
[22] = tested on: HT-1080; test: Cell cycle arrest in human HT-1080 cells assessed as G1 phase cells at 4 uM incubated for 24 hrs by PI staining based flow cytometric analysis (reference value: 58.1 %); type: functional
[23] = tested on: HT-1080; test: Cell cycle arrest in human HT-1080 cells assessed as G1 phase cells at 8 uM incubated for 24 hrs by PI staining based flow cytometric analysis (reference value: 58.1 %); type: functional
[24] = tested on: HT-1080; test: Cell cycle arrest in human HT-1080 cells assessed as G1 phase cells at 10 uM incubated for 24 hrs by PI staining based flow cytometric analysis (reference value: 58.1 %); type: functional
[25] = Toxicity in Sprague-Dawley rat assessed as observable clinical signs at 0.5 mg/kg, iv measured after 24 hrs; type: organism-based; conditions: in vivo
[26] = Half-life in Sprague-Dawley rat at 0.5 mg/kg, iv measured after 24 hrs by LC-MS/MS analysis; type: ADME, organism-based; conditions: in vivo
[27] = Half-life in Sprague-Dawley rat at 5 mg/kg, po measured after 24 hrs by LC-MS/MS analysis; type: ADME, organism-based; conditions: in vivo
[28] = Cmax in Sprague-Dawley rat at 5 mg/kg, po measured after 24 hrs by LC-MS/MS analysis; type: ADME, organism-based; conditions: in vivo
[29] = Clearance in Sprague-Dawley rat at 5 mg/kg, po measured after 24 hrs by LC-MS/MS analysis; type: ADME, organism-based; conditions: in vivo
[30] = Oral bioavailability in Sprague-Dawley rat at 5 mg/kg measured after 24 hrs by LC-MS/MS analysis; type: ADME, organism-based; conditions: in vivo
[31] = In vivo inhibition of IDH1 mutant in female nude mouse xenografted with human HT-1080 cells assessed as reduction in 2-HG levels in tumor at 40 mg/kg, ip administered twice at 1 hrs interval by resazurin fluorescence dye based Sigma MAK320-1 assay kit analysis relative to control; type: functional
[32] = tested on: HT-1080; test: Antitumor activity against human HT-1080 cells xenografted in female nude mouse assessed as suppression of tumor growth at 40 mg/kg, ip administered every 2 days for 8 days; type: functional, organism-based; conditions: time 8.0 day
[33] = Toxicity in female nude mouse xenografted with human HT-1080 cells assessed as body weight loss at 40 mg/kg, ip administered every 2 days for 8 days; type: organism-based; conditions: in vivo, 192 h, time 8 day

Molecule `COc1cc(O)c(-c2cc(-c3ccc(O)cc3)nc(N3CCNCC3)n2)cc1CC=C(C)C` has an inhibition [1] greater than 100%, an IC50 [2] greater than 20000 nM and an Activity [3] of 21.9%. The inhibition [4] was 75.4%, the inhibition [5] was greater than 100% and the EC50 [6] was 182 nM. The Activity [7] was “Active”, the GC50 [8] was 1380 nM and the viability at 2 µM [9] was 88.8%. The Activity [10] was 5.1%, the Activity [11] was 1.16% and the viability at 4 µM [12] was 83.7%. It also gave an Activity [13] of 2.13%, a viability at 8 µM [14] of 69.6% and an Activity [15] of 17.93%. It also gave an Activity [16] of 4.66%, a viability at 6 µM [17] of 91.5% and an Activity [18] of 2.92%. It also gave an Activity [19] of 4.99%, an Activity [20] of 3.25% and an Activity [21] of 11.25%. The Activity [22] was 56.1%, the Activity [23] was 51.8% and the Activity [24] was 45.4%. The Activity [25] was “Non-Toxic”, the half-life [26] was 1.46 h and the half-life [27] was 2.13 h. For the same molecule, the Cmax [28] was 478 ng/mL, the CL/F [29] was 168 mL/min/kg and the bioavailability [30] was 16.8%. For the same molecule, the inhibition in vivo at 40 mg/kg [31] was 96%, the Activity [32] was “Active” and the Activity [33] was “Non-Toxic”.
